The values that follow come from ChEMBL document CHEMBL3272295, “Drugs derived from cannabinoids. 5. delta6a,10a-Tetrahydrocannabinol and heterocyclic analogs containing aromatic side chains” (J Med Chem, 1976).

Counter-ions that a name gives are not always drawn. Bounds are passed on as bounds.

Series [1] concerns Rattus norvegicus. Put plainly: Antianxiety activity in Long-Evans rat assessed as reduction in motor activity at 5 mg/kg, po after 2 hrs relative to vehicle-treated control. In kind it is functional. Also noted: scale not given: the % may be the effect or the level left.
The nature of series [2]: Acute toxicity in po dosed mouse. The class given is organism-based. The following applies: in vivo.
The subject of series [3] is Canis familiaris. Put plainly: Antianxiety activity in po dosed dog assessed as ataxia administered as single dose measured up to 24 hrs. The class given is functional. The following applies: Canis lupus familiaris, read-out: MED.
For series [4], the system named is Rhesus monkey. Nature of the series: Antianxiety activity in po dosed rhesus monkey assessed as antiagressive behavior measured every hour post dosing. The following applies: Macaca mulatta, read-out: MED. The class given is functional.
Series [5] has as its system Rattus norvegicus. Nature of the series: Antihypertensive activity in spontaneously hypertensive rat model assessed as reduction in blood pressure at 10 mg/kg, po after 3 hrs. In kind it is functional. The arrangement: scale not given: the % may be the effect or the level left.
Series [6] relates to Mus musculus. Put plainly: Antianxiety activity in albino BALB/cJ mouse assessed as reduction in footshock-induced fighting behavior at 10 mg/kg, po after 30 to 90 mins. In kind it is functional. The arrangement: scale not given: the % may be the effect or the level left.
Series [7] relates to Mus musculus. Put plainly: Analgesic activity in mouse assessed as inhibition of acetic acid-induced writhing at 40 mg/kg, po administered 30 mins prior to acetic acid challenge measured after 5 mins for 20 mins. In kind it is functional. In general terms: Writhing tests count abdominal constrictions after an irritant is injected.
For series [8], the species on record is Rattus norvegicus. Nature of the series: animal or person. The class given is functional. The note with it: Charles River, route oral.
Description: Antidiarrheal activity in Charles River rat assessed as inhibition of castor oil-induced diarrhea by measuring protected animals at 0.5 mg/kg, po administered 1 hr prior to castor oil challenge measured after 1 hr relative to vehicle-treated control
The subject of series [9] is Rattus norvegicus. Put plainly: Antihypertensive activity in spontaneously hypertensive rat model assessed as reduction in blood pressure at 10 mg/kg, po after 24 hrs. The class given is functional. Also noted: scale not given: the % may be the effect or the level left.
Series [10] concerns Rattus norvegicus. Nature of the series: Antipsychotic activity in rat assessed as reduction of methamphetamine-induced hyperactivity at 5 mg/kg, po administered prior to methamphetamine challenge relative to vehicle-treated control. In kind it is functional. Also noted: scale not given: the % may be the effect or the level left.
Series [11] has as its system Rattus norvegicus. Put plainly: Antidiarrheal activity in Charles River rat assessed as inhibition of castor oil-induced diarrhea by measuring protected animals at 0.2 mg/kg, po administered 1 hr prior to castor oil challenge measured after 1 hr relative to vehicle-treated control. In kind it is functional.
Series [12] deals with Rattus norvegicus. Nature of the series: Antidiarrheal activity in Charles River rat assessed as inhibition of castor oil-induced diarrhea by measuring protected animals at 0.1 mg/kg, po administered 1 hr prior to castor oil challenge measured after 1 hr relative to vehicle-treated control. The class given is functional.
Series [13] has as its system Rattus norvegicus. Put plainly: Antidiarrheal activity in Charles River rat assessed as inhibition of castor oil-induced diarrhea by measuring protected animals at 0.05 mg/kg, po administered 1 hr prior to castor oil challenge measured after 1 hr relative to vehicle-treated control. In kind it is functional.
Series [14] has as its system Rattus norvegicus. Nature of the series: Increase in pepsin concentration in Sprague-Dawley rat at 50 mg/kg, po administered 30 mins prior to pylorus ligation measured after 4 hrs relative to control. The class given is functional.
The test system of series [15] is Rattus norvegicus. Nature of the series: Antisecretory activity in Sprague-Dawley rat assessed as decrease in pepsin output at 50 mg/kg, po administered 30 mins prior to pylorus ligation measured after 4 hrs relative to control. The class given is functional. The arrangement: scale not given: the % may be the effect or the level left.
In series [16] the test system is Mus musculus. Put plainly: Analgesic activity in po dosed mouse assessed as inhibition of acetic acid-induced writhing administered 30 mins prior to acetic acid challenge measured after 5 mins for 20 mins. The class given is functional.
Series [17] has as its system Rattus norvegicus. Nature of the series: Antisecretory activity in Sprague-Dawley rat assessed as decrease in acidity at 50 mg/kg, po administered 30 mins prior to pylorus ligation measured after 4 hrs relative to control. The class given is functional. Also noted: scale not given: the % may be the effect or the level left.
Series [18] relates to Rattus norvegicus. Put plainly: Antisecretory activity in Sprague-Dawley rat assessed as decrease in acid output at 50 mg/kg, po administered 30 mins prior to pylorus ligation measured after 4 hrs relative to control. In kind it is functional. The arrangement: scale not given: the % may be the effect or the level left.
Series [19] deals with Rattus norvegicus. Nature of the series: Antisecretory activity in Sprague-Dawley rat assessed as decrease in volume at 50 mg/kg, po administered 30 mins prior to pylorus ligation measured after 4 hrs relative to control. In kind it is functional. The arrangement: scale not given: the % may be the effect or the level left.
The test system of series [20] is Felis catus. Nature of the series: Hypnotic activity in cat assessed as increase in total sleep time at 0.5 mg/kg administered orally through diet measured for 12 hrs by EEG analysis. In kind it is functional. The following applies: route oral.
Series [21] relates to Felis catus. Nature of the series: Hypnotic activity in cat assessed as increase in non-REM sleep time at 0.5 mg/kg administered orally through diet measured for 12 hrs by EEG analysis. The class given is functional. The following applies: route oral.
Series [22] has as its system Mus musculus. Nature of the series: Antianxiety activity in albino BALB/cJ mouse assessed as reduction in footshock-induced fighting behavior at 5 mg/kg, po after 30 to 90 mins. The arrangement: scale not given: the % may be the effect or the level left. The class given is functional.
For series [23], the system named is Mus musculus. Nature of the series: Antidepressant activity in po dosed mouse assessed as potentiation of DOPA-induced effect administered 4 hrs prior to DOPA challenge. The class given is functional. The following applies: read-out: MED.
The test system of series [24] is Rattus norvegicus. Nature of the series: Antianxiety activity in Long-Evans rat assessed as reduction in motor activity at 10 mg/kg, po after 2 hrs relative to vehicle-treated control. The arrangement: scale not given: the % may be the effect or the level left. The class given is functional.
Series [25] concerns Rattus norvegicus. Put plainly: Analgesic activity in po dosed Sprague-Dawley rat after 15 to 90 mins by tail flick test. The class given is functional.
Series [26] concerns Rattus norvegicus. Put plainly: Antianxiety activity in Long-Evans rat assessed as reduction in motor activity at 4 mg/kg, po after 2 hrs relative to vehicle-treated control. In kind it is functional. The arrangement: scale not given: the % may be the effect or the level left.
Series [27] has as its system Rattus norvegicus. Nature of the series: Antianxiety activity in Long-Evans rat assessed as reduction in motor activity at 1 mg/kg, po after 2 hrs relative to vehicle-treated control. The class given is functional. The arrangement: scale not given: the % may be the effect or the level left.
The subject of series [28] is Rattus norvegicus. Nature of the series: Antipsychotic activity in rat assessed as reduction of methamphetamine-induced hyperactivity at 10 mg/kg, po administered prior to methamphetamine challenge relative to vehicle-treated control. In kind it is functional. The arrangement: scale not given: the % may be the effect or the level left.
The test system of series [29] is Rattus norvegicus. Nature of the series: Antipsychotic activity in rat assessed as reduction of methamphetamine-induced hyperactivity at 2.5 mg/kg, po administered prior to methamphetamine challenge relative to vehicle-treated control. The class given is functional. The arrangement: scale not given: the % may be the effect or the level left.
Series [30] relates to Mus musculus. Put plainly: Anticonvulsant activity in po dosed mouse assessed as dose required to protect 80% of animal measured after 1 to 4 hrs by audiogenic seizure test. In kind it is functional.
Series [31] concerns Rattus norvegicus. Put plainly: Antipsychotic activity in rat assessed as reduction of methamphetamine-induced hyperactivity at 2 mg/kg, po administered prior to methamphetamine challenge relative to vehicle-treated control. In kind it is functional. The arrangement: scale not given: the % may be the effect or the level left.

Broadly, the LD50 is the dose at which mortality reaches 50%. What is called inhibition in vivo is the change of the read-out against control, counted positive when it falls. In the case of `CC(CCCc1ccc(F)cc1)c1cc(O)c2c(c1)OC(C)(C)C1=C2CCC1` (stereo unspecified), the Activity is listed as 41% in [1]; 3% in series [5]; 47% in [6]; 30% in series [9]; 58% in series [10]. Further, the LD50 in series [2] was ≥ 1000 mg/kg. In addition, the minimal effective dose in [3] and in series [4] was 10 mg/kg each time. For the same molecule, the inhibition in vivo at 40 mg/kg in series [7] was 22%. The molecule further showed an inhibition in vivo at 0.5 mg/kg in [8] of 20%.

As for `CCOC(=O)C1(c2ccccc2)CCN(CCC(C#N)(c2ccccc2)c2ccccc2)CC1` [DIPHENOXYLATE HYDROCHLORIDE], the inhibition in vivo at 0.2 mg/kg in series [11] turned out to be 95%. Besides, the inhibition in vivo at 0.1 mg/kg in series [12] was 67%. For the same molecule, the inhibition in vivo at 0.05 mg/kg in series [13] was determined as 46%.

The ED50 is the midpoint of the dose-response relation. `C#CCN1CCC2=C(C1)c1c(OC(=O)CCCN3CCCCC3)cc(C(C)CCCc3ccc(F)cc3)cc1OC2(C)C.Cl` (stereo unspecified): the Activity in [1] came out at 87%; in [14] it was 32%; in series [15] it was 1.9%; in series [6] it was 23%; in series [17], 42.4%; in [18], 56.1%. Also, the Activity came to 24.9% in series [19] and 62% in series [10]. Further, in series [2], the LD50 is 750 mg/kg. In addition, the values for the minimal effective dose in series [3] and in series [4] were 0.4 mg/kg and 1 mg/kg, respectively. The ED50 in series [16] was determined as 10.3 mg/kg. In series [8], the inhibition in vivo at 0.5 mg/kg turned out to be 40%. Further, the results for the Time in series [20] and in series [21] were 47 min and 121 min, respectively.

`Br.CC(CCCc1ccc(F)cc1)c1cc(O)c2c(c1)OC(C)(C)C1=C2C2CCN1CC2` (stereo unspecified): the Activity in series [1] was found to be 23%; in series [22] it was 23%; in series [24], 46%; in series [10], 4%. In series [2], the 50% lethal dose (LD50) is ≥ 1000 mg/kg. Moreover, the figures for the minimal effective dose in [3], in series [4] and in series [23] were 1 mg/kg, 1 mg/kg and 20 mg/kg, respectively. Besides, the inhibition in vivo at 40 mg/kg in [7] came out at 32%. The inhibition in vivo at 0.5 mg/kg in series [8] was determined as 10%.

With `CC1CCC2=C(C1)c1c(OC(=O)CCCN3CCOCC3)cc(C(C)CCCc3ccc(F)cc3)cc1OC2(C)C.Cl` (stereo unspecified), the LD50 in series [2] was ≥ 1000 mg/kg. The Activity worked out at 8% in series [22]; 93% in [26]; 68% in series [27]; 95% in [28]; 86% in series [29]. In addition, the minimal effective dose in series [3] and in series [4] was 10 mg/kg in each case. In addition, the results for the median effective dose (ED50) in [16] and in series [25] were 6 mg/kg and 1.7 mg/kg, respectively. Also, the Time in series [20] was determined as 16 min; in series [21], 39 min.

As for `CC1CCC2=C(C1)c1c(O)cc(C(C)CCCc3ccccc3)cc1OC2(C)C` (stereo unspecified), the Activity in series [1] worked out at 36%; in [6], 77%; in [30], 30 mg/kg; in series [31] it was 46%; in series [10] it was 77%. The molecule also showed an LD50 in [2] of 750 mg/kg. Besides, the minimal effective dose was 1 mg/kg in [3] and 0.5 mg/kg in series [4]. In series [16], the median effective dose (ED50) stood at 17 mg/kg. The Time turned out to be 28 min in series [20] and 2 min in series [21].
